For 25 compounds, EC50 results are on record in patent US20190367516A1 (Bayer Pharma Aktiengesellschaft, priority 2015, published 2019).

pEC50: −log10 of the molar value.

The assay concerns the target T1, human M2 receptor (Homo sapiens, UniProt P08172).
T1 sequence (P08172 1-466): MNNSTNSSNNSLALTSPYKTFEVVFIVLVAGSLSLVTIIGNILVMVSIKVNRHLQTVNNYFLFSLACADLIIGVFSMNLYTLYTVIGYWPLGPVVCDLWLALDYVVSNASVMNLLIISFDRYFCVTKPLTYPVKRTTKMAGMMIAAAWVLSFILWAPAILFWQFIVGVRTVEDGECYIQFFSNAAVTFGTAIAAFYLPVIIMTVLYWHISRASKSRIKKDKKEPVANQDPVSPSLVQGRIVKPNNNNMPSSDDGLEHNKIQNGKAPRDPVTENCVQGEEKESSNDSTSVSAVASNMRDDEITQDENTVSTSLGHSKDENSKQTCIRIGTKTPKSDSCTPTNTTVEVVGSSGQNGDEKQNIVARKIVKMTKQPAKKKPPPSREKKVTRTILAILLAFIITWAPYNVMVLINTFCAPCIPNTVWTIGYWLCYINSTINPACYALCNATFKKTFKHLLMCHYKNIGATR
The note with it: Receptor activity EC50, M2-GIRK1/4 activation test, acetylcholine at EC20; allosteric potency; in some cases mean values from two or more determinations.
In turn, `O=C(NC12CC3CC(CC(F)(C3)C1)C2)c1cn(-c2ccc(F)cc2F)c2nc(N3CC[C@H](F)C3)ccc2c1=O` [Example 62, 1-(2,4-Difluorophenyl)-7-[(3S,)-3-fluoropyrrolidin-1-yl]-N-(3-fluorotricyclo[3.3.1.1^3,7]dec-1-yl)-4-oxo-1,4-dihydro-1,8-naphthyridine-3-carboxamide] gave a pEC50 of 7.77.

In turn, `O=C(NC12CCC(F)(CC1)CC2)c1cn(-c2ccc(F)cc2F)c2nc(N3CC[C@H](F)C3)ccc2c1=O` [Example 63, 1-(2,4-Difluorophenyl)-N-(4-fluorobicyclo[2.2.2]oct-1-yl)-7-[(3S)-3-fluoropyrrolidin-1-yl]-4-oxo-1,4-dihydro-1,8-naphthyridine-3-carboxamide] showed a pEC50 of 7.40.

In turn, `CCCC(NC(=O)c1cn(-c2ccc(F)cc2F)c2nc(N3CC[C@H](F)C3)ccc2c1=O)C(F)(F)F` (stereo partly drawn) [Example 66, 1-(2,4-Difluorophenyl)-7-[(3S)-3-fluoropyrrolidin-1-yl]-4-oxo-N-[1,1,1-trifluoropentan-2-yl]-1,4-dihydro-1,8-naphthyridine-3-carboxamide] gave a pEC50 of 8.00.

`O=C(NCC(F)(F)F)c1cn(-c2ccc(F)cc2F)c2nc(N3CC[C@H](F)C3)ccc2c1=O` [Example 67, 1-(2,4-Difluorophenyl)-7-[(3S)-3-fluoropyrrolidin-1-yl]-4-oxo-N-(2,2,2-trifluoroethyl)-1,4-dihydro-1,8-naphthyridine-3-carboxamide] had a pEC50 of 6.86.

On to `O=C(NC1(C(F)(F)F)CC1)c1cn(-c2ccc(F)cc2F)c2nc(N3CC[C@H](F)C3)ccc2c1=O` [Example 68, 1-(2,4-Difluorophenyl)-7-[(3S)-3-fluoropyrrolidin-1-yl]-4-oxo-N-[1-(trifluormethyl)cyclopropyl]-1,4-dihydro-1,8-naphthyridine-3-carboxamide], for which the pEC50 is 7.24.

In turn, `CC(C)C(NC(=O)c1cn(-c2ccc(F)cc2F)c2nc(N3CC[C@H](F)C3)ccc2c1=O)C(F)(F)F` (stereo partly drawn) [Example 69, 1-(2,4-Difluorophenyl)-7-[(3S)-3-fluoropyrrolidin-1-yl]-4-oxo-N-[1,1,1-trifluoro-3-methylbutan-2-yl]-1,4-dihydro-1,8-naphthyridine-3-carboxamide] gave a pEC50 of 7.89.

The compound `O=C(NC12CC3CC(CC(C3)C1)C2)c1cn(-c2ccc(F)cc2F)c2nc(N3CC[C@@H](F)C3)ccc2c1=O` [Example 72, 1-(2,4-Difluorophenyl)-7-[(3R)-3-fluoropyrrolidin-1-yl]-4-oxo-N-(tricyclo[3.3.1.1^3,7]dec-1-yl)-1,4-dihydro-1,8-naphthyridine-3-carboxamide] had a pEC50 of 7.28.

In the case of `O=C(NC12CC3CC(CC(C3)C1)C2)c1cn(-c2ccc(F)cc2F)c2nc(N3CCC(F)(F)C3)ccc2c1=O` [Example 73, 1-(2,4-Difluorophenyl)-7-(3,3-difluoropyrrolidin-1-yl)-4-oxo-N-(tricyclo[3.3.1.1^3,7]dec-1-yl)-1,4-dihydro-1,8-naphthyridine-3-carboxamide], the pEC50 is 7.14.

On to `CC[C@H](NC(=O)c1cn(-c2ccc(F)cc2F)c2nc(N3CCC(F)(F)C3)ccc2c1=O)C(F)(F)F` [Example 75, 1-(2,4-Difluorophenyl)-7-(3,3-difluoropyrrolidin-1-yl)-4-oxo-N-[(2S)-1,1,1-trifluorobutan-2-yl]-1,4-dihydro-1,8-naphthyridine-3-carboxamide], for which the pEC50 was 7.14.

`O=C(NC12CC3CC(CC(C3)C1)C2)c1cn(-c2ccc(F)cc2F)c2nc(N3CC(F)(F)C(F)(F)C3)ccc2c1=O` [Example 77, 1-(2,4-Difluorophenyl)-4-oxo-7-(3,3,4,4-tetrafluoropyrrolidin-1-yl)-N-(tricyclo[3.3.1.1^3,7]dec-1-yl)-1,4-dihydro-1,8-naphthyridine-3-carboxamide] showed a pEC50 of 6.18.

As for `CC(C)CC(NC(=O)c1cn(-c2ccc(F)cc2F)c2nc(N3CCS(=O)(=O)C3)ccc2c1=O)C(F)(F)F` (stereo not shown) [Example 78, 1-(2,4-Difluorophenyl)-7-(1,1-dioxido-1,3-thiazolidin-3-yl)-4-oxo-N-[1,1-trifluoro-4-methylpentan-2-yl]-1,4-dihydro-1,8-naphthyridine-3-carboxamide], the pEC50 was 7.10.

In turn, `O=C(NC12CC3CC(CC(C3)C1)C2)c1cn(-c2ccc(F)cc2F)c2nc(NCCO)ccc2c1=O` [Example 79, 1-(2,4-Difluorophenyl)-7-[(2-hydroxyethyl)amino]-4-oxo-N-(tricyclo[3.3.1.1^3,7]dec-1-yl)-1,4-dihydro-1,8-naphthyridine-3-carboxamide] gave a pEC50 of 6.84.

Compound `CC(C)CC(NC(=O)c1cn(-c2ccc(F)cc2F)c2nc(NCCO)ccc2c1=O)C(F)(F)F` (stereo not shown) [Example 80, 1-(2,4-Difluorophenyl)-7-[(2-hydroxyethyl)amino]-4-oxo-N-[1,1,1-trifluoro-4-methylpentan-2-yl]-1,4-dihydro-1,8-naphthyridine-3-carboxamide] had a pEC50 of 7.14.

In the case of `CCCC(NC(=O)c1cn(-c2ccc(F)cc2F)c2nc(NCCO)ccc2c1=O)C(F)(F)F` (stereo not shown) [Example 81, 1-(2,4-Difluorophenyl)-7-[(2-hydroxyethyl)amino]-4-oxo-N-[1,1,1-trifluoropentan-2-yl]-1,4-dihydro-1,8-naphthyridine-3-carboxamide], the negative-log EC50 (pEC50) was 6.99.

`CN(CCO)c1ccc2c(=O)c(C(=O)NC34CC5CC(CC(C5)C3)C4)cn(-c3ccc(F)cc3F)c2n1` [Example 82, 1-(2,4-Difluorophenyl)-7-[(2-hydroxyethyl)(methyl)amino]-4-oxo-N-(tricyclo[3.3.1.1^3,7]dec-1-yl)-1,4-dihydro-1,8-naphthyridine-3-carboxamide] gave a pEC50 of 7.22.

Compound `O=C(NC12CC3CC(CC(C3)C1)C2)c1cn(-c2ccc(F)cc2F)c2nc(NCCF)ccc2c1=O` [Example 83, 1-(2,4-Difluorophenyl)-7-[(2-fluoroethyl)amino]-4-oxo-N-(tricyclo[3.3.1.1^3,7]dec-1-yl)-1,4-dihydro-1,8-naphthyridine-3-carboxamide] had a pEC50 of 6.96.

The compound `CC(C)CC(NC(=O)c1cn(-c2ccc(F)cc2F)c2nc(NCCF)ccc2c1=O)C(F)(F)F` (stereo not shown) [Example 88] had a pEC50 of 7.38.

In turn, `O=C(NC12CC3CC(CC(F)(C3)C1)C2)c1cn(-c2ccc(F)cc2F)c2nc(NCC(F)(F)F)ccc2c1=O` [Example 91, 1-(2,4-Difluorophenyl)-N-(3-fluorotricyclo[3.3.1.1^3,7]dec-1-yl)-4-oxo-7-[(2,2,2-trifluoroethyl)amino]-1,4-dihydro-1,8-naphthyridine-3-carboxamide] had a pEC50 of 7.24.

On to `O=C(NC12CC3CC(F)(CC(F)(C3)C1)C2)c1cn(-c2ccc(F)cc2F)c2nc(NCC(F)(F)F)ccc2c1=O` [Example 92, 1-(2,4-Difluorophenyl)-N-(3,5-difluorotricyclo[3.3.1.1^3,7]dec-1-yl)-4-oxo-7-[(2,2,2-trifluoroethyl)amino]-1,4-dihydro-1,8-naphthyridine-3-carboxamide], for which the pEC50 was 6.76.

`CC[C@@H](NC(=O)c1cn(-c2ccc(F)cc2F)c2nc(NCC(F)(F)F)ccc2c1=O)C(F)(F)F` [Example 94, 1-(2,4-Difluorophenyl)-4-oxo-N-[(2R)-1,1,1-trifluorobutan-2-yl]-7-[(2,2,2-trifluoroethyl)amino]-1,4-dihydro-1,8-naphthyridine-3-carboxamide] had a pEC50 of 6.79.

Compound `O=C(NC1(C(F)(F)F)CCCC1)c1cn(-c2ccc(F)cc2F)c2nc(NCC(F)(F)F)ccc2c1=O` [Example 96, 1-(2,4-Difluorophenyl)-4-oxo-7-[(2,2,2-trifluoroethyl)amino]-N-[1-(trifluoromethyl)cyclopentyl]-1,4-dihydro-1,8-naphthyridine-3-carboxamide] showed a pEC50 of 6.87.

`CN(CCF)c1ccc2c(=O)c(C(=O)NC34CC5CC(CC(C5)C3)C4)cn(-c3ccc(F)cc3F)c2n1` [Example 101, 1-(2,4-Difluorophenyl)-7-[(2-fluoroethyl)(methyl)amino]-4-oxo-N-(tricyclo[3.3.1.1^3,7]dec-1-yl)-1,4-dihydro-1,8-naphthyridine-3-carboxamide] had a pEC50 of 7.59.

Turning to `CN(CCF)c1ccc2c(=O)c(C(=O)NC34CC5CC(CC(F)(C5)C3)C4)cn(-c3ccc(F)cc3F)c2n1` [Example 102, 1-(2,4-Difluorophenyl)-7-[(2-fluoroethyl)(methyl)amino]-N-(3-fluorotricyclo[3.3.1.1^3,7]dec-1-yl)-4-oxo-1,4-dihydro-1,8-naphthyridine-3-carboxamide], the pEC50 was 7.51.

`CC[C@H](NC(=O)c1cn(-c2ccc(F)cc2F)c2nc(N(C)CCF)ccc2c1=O)C(F)(F)F` [Example 103, 1-(2,4-Difluorophenyl)-7-[(2-fluoroethyl)(methyl)amino]-4-oxo-N-[(2S)-1,1,1-trifluorobutan-2-yl]-1,4-dihydro-1,8-naphthyridine-3-carboxamide] gave a pEC50 of 7.30.

The compound `CCCC(NC(=O)c1cn(-c2ccc(F)cc2F)c2nc(N(C)CCF)ccc2c1=O)C(F)(F)F` (stereo not shown) [Example 106, 1-(2,4-Difluorophenyl)-7-[(2-fluoroethyl)(methyl)amino]-4-oxo-N-[1,1,1-trifluoropentan-2-yl]-1,4-dihydro-1,8-naphthyridine-3-carboxamide] gave a pEC50 of 7.49.
